Data taken from patent publication US20210330861A1, “ANTIMICROBIAL COATING COMPOSITIONS” (BIOCANT - CENTRO DE INOVAÇÃO EM BIOTECNOLOGIA, priority 2012, published 2021).
Ends that are not written are not given here.

Assays:
[1] = test system: HUVEC; assay: Soluble CM peptide interaction with cells, MTT assay; assay type: cell-based, human; conditions: 24 h contact with soluble peptide
Experimental: Two human cell types such as human endothelial umbilical vein cells (HUVEC) as a model for vascularized tissues and normal dermal human fibroblasts (NDHF) one of the most common cell type present in human connective tissue were used to evaluate the cytotoxicity induced by CM peptide immobilized surfaces. HUVECs (preferably, Lonza, Cat. Number CC-2517, Walkersville, Md., USA) were cultured using endothelial growth factor-2 media (EGM-2), bullet kit media (preferably, Lonza, Cat. Number CC-3156) for at least 24 h prior to further use. Passages below six were used for all experiments.
HUVEC and NDHF cells were cultured as previously mentioned and platted at a density of 4.2×10^3 cells/cm2 in 24-well plates. Cells were allowed to grow 24 h prior to any experiments performed. Different concentrations of CM peptide solutions (50, 30, 20, 10, 5, 2.5 and 1 μg/mL) were incubated with both cells for 24 hr to evaluate the cytotoxicity effect of CM peptides using MTT cell metabolic activity assay.
Initially cells were washed with warm phosphate buffer saline (PBS). […] Absorbance was measured at 540 nm with reference to 670 nm in a UV-visible spectrophotometer (SynergyMx from Biotek Instruments, Winooski, Vt., United States) (I don't understand by reference).

[2] = test system: S. aureus; assay: Antimicrobial activity testing of peptide capped gold nanoparticles and peptide in bacterial suspension (colony count); assay type: cell-based; conditions: 10 μg/mL, after 4 hr of incubation, 10% human serum
Experimental: (§1) S. aureus and E. coli were grown at 37° C. and maintained on LB plates (preferably, Luria-Bertani broth with 1.5% agar). Bacteria were also grown in LB media for overnight at 37° C. and cell counts were quantified by OD 600 measurements. Different amounts of peptide capped gold nanoparticles, peptide (5-10 μg/mL) and HEPES reduced gold nanoparticles (10 μg/mL) were added into bacterial suspensions ([…]) in presence of 10% human serum and incubated for 4 h at 37° C. 100 μL aliquots were taken out from the respective suspensions at 2 h intervals and diluted in PBS buffer to give […] and plated on LB agar plates followed by incubation at 37° C. Colonies were counted after 24 h of incubation. In another experiments, citric acid reduced gold nanoparticles were functionalized with 1 mg/mL mPEG-thiol (5 kDa). Gold nanoparticles were synthesized using citric acid as described previously (11). PEG and CMC peptide coated gold nanoparticles were incubated with 10% human serum for 2 hr at 4° C. followed by centrifugation at 14000 rpm to discard free human serum. Similarly, to study protease degradation, CMC coated gold nanoparticles and bare CMC peptides were treated with 1 mg/mL trypsin (phosphate buffer pH 8) for 2 h at 37° C. After 2 h of reaction, the nanoparticle solution was subjected to centrifugation to remove trypsin. Antimicrobial test was performed with human serum and trypsin treated peptide capped gold nanoparticles against E. coli.

[3] = test system: E. coli; assay: as above; assay type: cell-based
Experimental: as §1

[4] = Zeta potential of gold nanoparticles; assay type: physicochemical; conditions: after centrifugation and redispersion in HEPES, room temperature
Experimental: The synthesized gold nanoparticle solutions were centrifuged at 14000 rpm followed by washing with mill-Q water to remove unreacted peptides and HEPES. The centrifuged gold nanoparticles were frozen and fridge dried at 223 K using . . . Thermogravimetric analysis (TGA) of peptide capped gold nanoparticles and gold nanoparticles synthesized without peptides was performed using over a temperature range of 30-600° C. at a heating rate of 10° C./min in presence of N2 gas. The binding of peptide on gold nanoparticle surface was analyzed, preferably by FTIR spectroscopy in ATR mode using JASCO spectrophotometer at 4 cm-1 resolutions with 64 scans. Zeta (ζ) potential of the synthesized gold nanoparticles after centrifugation and redispersion in HEPES were measured, preferably, using Brukerheaven instrument at room temperature.

Row | Substance | concentration at which negative influence on metabolic activity was also detected (MTT) [1] [ng/mL] | killing of bacteria [2] | killing of bacteria ([3]; 10 μg/mL, after 4 hr of incubation, 10% human serum) | incubation time to kill bacteria ([3]; absence of human serum (FIG. 9)) [min] | antimicrobial activity after trypsin treatment ([3]; treated with 1 mg/mL trypsin for 2 h at 37° C.) | ζ potential (mV) [4]
1 | Cecropin-mellitin [soluble CM peptide] | 1000 |  |  |  |  | 
2 | KWKLFKKIGAVLKVLC [CMC peptide, KWKLFKKIGAVLKVLC] |  | reduced activity | reduced activity | 60 | did not show any antimicrobial activity | +23±1 mV
